Patent publication US20260125357A1, “LACTATE ENHANCING COMPOUNDS AND USES THEREOF” (GLIAPHARM SA, priority 2022, published 2026)
pEC50: −log10 of the molar value.

Legend:
[1] = test system: C57Bl/6J wild-type mice; assay: Lactate and glucose biosensors, cerebral extracellular levels in freely moving mice; format: in vivo, mouse; details: per os, doses 10 to 30 mg/kg, 3 hours, AUC ratio vs vehicle
Experimental: (§1) All experiments were carried out in strict accordance with the Swiss Federal Guidelines for Animal Experimentation and were approved by the Cantonal Veterinary Office for Animal Experimentation (Canton of Geneva, Switzerland). Adult male C57Bl/6J wild-type mice weighting 18-28 g (8 to 12 weeks of age) were used (Charles River Laboratories). Animals were housed in groups of 3-5 in polypropylene cages (30×40×15 cm) with wire mesh top in a temperature (22±2° C.) and humidity (55±15%) controlled environment on a 12-hour light cycle (07.00-19.00 h lights on), except after surgeries when animal were housed individually. The samples (Vehicle or compounds of the invention) were administered per os (gavage) in a solution made of water supplemented with 0.4% hydroxypropyl methylcellulose (HPMC) Methocel 4 KM (w/v) and 0.25% Tween-20 (v/v), as previously described (Thackaberry et al., 2010, Toxicol Sci., 117(2):485-92). Concentrations of the compounds tested ranged from 3 to 30 mg/kg.
Cerebral extracellular levels of L-lactate and D-glucose were monitored in vivo using lactate and glucose biosensors (Pinnacle Technology), respectively, according to the manufacturer's instructions. Cannulae were surgically implanted in the medial prefrontal cortices (coordinates: −1.0 mm (to bregma), lateral+/−1.0 mm (to mideline), ventral −1.0 mm (to dura))) of isoflurane-anesthetized mice 5 to 7 days prior experiment. After surgery, mice were monitored closely and received analgesic treatment for at least 4 days. After mice had fully recovered from surgery, compounds of the invention of vehicle were administered per os as previously described and cerebral levels of extracellular lactate and glucose were dynamically recorded for 6 hours using biosensors. Mice were administered vehicle alone first, followed 3 hours later by vehicle or Compounds of the Invention. Concentrations of cerebral extracellular lactate and glucose were calculated from the biosensor electric signals using post-calibration values. […] Area Under the Curve (AUC) of lactate and glucose concentration curves were calculated using Graphad Prism and the ratio of AUC after drug over Vehicle administration was calculated. Extracellular concentrations of lactate and glucose were measured in real time in freely moving animals for 3 hours after administration of Vehicle or compounds (1) to (4) at doses ranging from 10 to 30 mg/kg (FIG. 5).

[2] = test system: primary astrocytes; assay: Extracellular medium acidification (SNARF5) assay in astrocytes; format: cell-based; details: Mus musculus, Astrocyte; astrocytes in vitro; compounds 10 nM to 30 μM; read-out: Activity (EC50 class, extracellular medium acidification SNARF5)
Experimental: To assess for the effect of the compounds of the invention, those were tested in primary mouse astrocytes and astrocytes differentiated from human-derived induced pluripotent stem cells (iPSCs). Secretion of lactate was measured indirectly through the acidification of extracellular medium using extracellular pH sensor SNARE-5F-(AND-6)-CAR (SNARF5) as described below.
(§2) Primary cultures of cerebrocortical astrocytes were obtained from 1 to 2-day-old OF1 mouse pups (Charles River Laboratories). Briefly, cortices were isolated and minced in small pieces under a dissecting microscope. The cells were incubated for 30 min at 37° C. in a solution containing 20 U/ml papain, 1 mM L-cysteine and 10 kU/ml DNase I. After dissociation, papain activity was stopped by the addition of fetal calf serum (FCS). Single-cell suspension was then obtained by mechanical dissociation, which consisted in cells trituration in a DMEM D7777 medium supplemented with 44 mm NaHCO3, 10 ml/L antibiotic/antimycotic solution and 10% FCS. The cells were seeded at an average density of ˜10′000 cells/cm^2 on poly-D-lysine coated 96- or 12-well culture plates, depending on their use, and grown in DMEM D7777 medium supplemented with 44 mm NaHCO3, 10 ml/L antibiotic/antimycotic solution and 10% FCS at 37° C. in a humidified atmosphere containing 5% CO2/95% air. Culture medium was renewed twice a week. Cells were stimulated and harvested between DIV14 and DIV17, when confluence and cell growth were optimal.
Secretion of lactate was measured indirectly through the acidification of extracellular medium using extracellular pH sensor SNARF-5F-(AND-6)-CAR (SNARF5). After washing cells twice with stimulation medium (DMEM (D5030, Sigma), 1 mM […], and 5 mM Glucose, pH 7.4) at 37° C., cells were stimulated with compounds at a final concentration ranging from 10 nM to 30 μM in 50 μl per well of stimulation medium supplemented with 10 μM of SNARF5 (Life Technologies Corporation). Each compound was tested in two different plates for duplicates. After 30, 60 and 90 min stimulation, fluorescence was read at exc. (excitation) 480 nm/emm. (emission) 580 nm and at exc 480 nm/emm. 630 nm. The ratio of fluorescence between 630 nm and 580 emission values, which is proportional to extracellular pH, was calculated. In each plate, 8 wells were used for negative controls (DMSO 0.1%) and 8 wells were used for positive controls (CCCP 2 μM in DMSO). Results are shown as % of positive control effect (0% and 100% being activities of the Veh and positive control, respectively).

[3] = test system: primary astrocytes; assay: MTT mitochondrial activity assay in primary astrocytes; format: cell-based, mouse; details: different concentrations, after 1.5 h or 24 h
Experimental: as §2
To monitor mitochondrial activity in astrocytes, which is linked to the metabolic process of glycolysis and production of lactate, astrocytes in 96-well plates were stimulated for 24 h (37° C. 5% CO2/95% air) with the compounds of the invention ranging from 10 nM to 10 μM.
After stimulation, 5 mg/ml thiazol blue tetrazolium bromide (MTT) in D5030 medium complemented with 5 mM D-glucose and 44 mM sodium bicarbonate (pH 7.2) was added to each well, and cells were incubated for 4 h at 37° C. (5% CO2). The medium was then removed and the amount of reduced MTT, i.e formazan, solubilized in DMSO (50 μl/well) was determined using a spectrophotometer (absorbance of 570 nm).
The mitochondrial activity was monitored in MTT colorimetric assay in primary astrocytes treated with Compounds (1), (2), (3), (4) (5), (9) and (10) at different concentrations after 1.5 h (FIG. 2 A, B, D, E, F, C, H, respectively) or 24 h (FIG. 2 H, I, K, L, M, J, N, respectively).

[4] = test system: GLUT1-DS transgenic mice; assay: Rotarod motor function in GLUT1-DS transgenic mice; format: in vivo, mouse; details: single administration 10 mg/kg, 20 min before rotarod
Source text: (§3) Heterozygous transgenic mice on 129/SvJ genetic background in which glucose transporter 1 (GLUT1) has been knocked down were used (GLUT1(+/−)) (Wang et al., 2016, Human Molecular Genetics, 15(7)). GLUT1-deficiency syndrome (GLUT1-DS) is a prototypic hypometabolic diseases caused by the mutation of GLUT1 and decreased levels of glucose and lactate in the brain (Tang et al., 2019, Annals of Clinical and Translational Neurology 6(9)). Mating colonies were composed of wild-type female mice and GLUT1-DS male mice, or GLUT1-DS female mice and wild-type male mice. F1 pups were genotyped after ear punching at weaning using PCR to determine genotype. Mice of 2 to 3 months of age were used.
Motor function was measured in wild-type (WT) and GLUT 1-DS transgenic mice in the rotarod after single administration of Veh. or compound (1) or (2) (10 mg/kg) 20 min before rotarod. Rotarod testing consisted in placing the mouse on an accelerating rotating rod (4 to 40 r.p.m.) during a maximum of 300 seconds. 3 consecutive sessions with 15 min apart were performed. Latency for the mouse to fall from the rod was recorded and the maximal latency over the 3 trials was used as a measure of motor function.

[5] = test system: C57Bl/6J wild-type mice; assay: 18F-FDG PET glucose uptake in the brain; format: in vivo, mouse; details: gavage, 30 mg/kg, vs Vehicle
Experimental: as §1
^18F-FDG PET Glucose uptake in the brain was measured in vivo using 18F-fluorodeoxyglucose (FDG) with positron emission tomography (PET) Scan. Mice were fasted for 12 hours before the scans PET/CT measurements. Compounds of the invention were administered by gavage, followed by an intraperitoneal injection of 5 MBq of ^18F-FDG in 300 μL of saline. […]

[6] = test system: Wild-type (WT) and GLUT1-DS transgenic mice; assay: Grip strength test in WT and GLUT1-DS transgenic mice; format: in vivo, mouse; details: 10 mg/kg, after rotarod session
Source text: as §3
Motor strength was measured on the grip strength test (Bioseb) after rotarod session. Wild-type (WT) and GLUT1-DS transgenic mice were placed with 4 paws on the grid and maximal grip strength was recorded over 2 sessions with 5 minutes apart. Maximal grip strength over the 2 sessions was recorded.

| SMILES | extracellular glucose levels in the brain [1] | extracellular lactate levels in the brain [1] | pEC50 [2] | mitochondrial activity (MTT colorimetric assay) [3] | rotarod performance (latency to fall) [4] | glucose uptake in the brain (18F-FDG in the whole brain) [5] | muscle strength (grip strength) [6] |
| --- | --- | --- | --- | --- | --- | --- | --- |
| COc1cc2c(Nc3ccc(S(C)(=O)=O)cc3)nccc2cc1O [Compound 4, 7-methoxy-1-(4-methylsulfonylanilino)isoquinolin-6-ol] | significantly increases extracellular glucose levels | significantly increases extracellular lactate levels | > 6.00 | none of the selected compounds had direct effect on mitochondrial activity |  |  |  |
| COc1cc2ccnc(Cc3ccc(N4CCCC4=O)cc3)c2cc1OC [Compound 1, 1-[4-[(6,7-dimethoxy-1-isoquinolyl)methyl]phenyl]pyrrolidin-2-one] | significantly increases extracellular glucose levels | significantly increases extracellular lactate levels | > 6.00 | none of the selected compounds had direct effect on mitochondrial activity | increased rotarod performance | increases glucose uptake in the brain | did not lead to any difference on muscle strength |
| COc1cc2ccnc(Nc3ccc(S(C)(=O)=O)cc3)c2cc1O [Compound 3, 6-methoxy-1-(4-methylsulfonylanilino)isoquinolin-7-ol] | significantly increases extracellular glucose levels | significantly increases extracellular lactate levels | > 6.00 | none of the selected compounds had direct effect on mitochondrial activity |  |  |  |
